Assay results as given in patent publication US20190038650A1, “COMPOSITIONS AND METHODS FOR THE TREATMENT OF ATHEROSCLEROSIS AND HEPATOSTEATOSIS AND OTHER DISEASES” (priority 2016, published 2019).

How the values were obtained:
[1] = orally and intravenously, doses substantially higher than the intended therapeutic dose; cited from earlier work
Mice fed a Western diet [2] = experiment: Insulin tolerance test; type: in vivo; details: compared to saline and sucrose, FIG. 3
Protocol: Additionally, an insulin tolerance test was performed in the presence of saline, sucrose or trehalose.

[3] = cited from earlier work
Mice fed a Western diet [4] = experiment: Steatosis / body composition in mice fed a Western diet; type: in vivo
Protocol: Mice were fed a Western diet in combination with saline, sucrose or trehalose. The saline, sucrose or trehalose was administered orally and IP. Oral administration was provided in the cage water supply at 2% w/v in water (w/v=weight/volume). Additionally, 2 grams trehlose/kg mouse weight was injected IP. IP injection was 3 times/week. […] It was then determined if this significant reduction in body mass was due to fat mass or lean mass. […] (FIG. 2B). It was then determined the location of the increase in fat mass via tissue weights. […] Finally, the amount of liver triglycerides was measured in each group.

[5] = Trehalose tolerance test, serum trehalose in trehalase knockout mice; type: in vivo; details: trehalose IP 1 g/kg, trehalase knockout mice versus control mice
Protocol: To determine if inhibition of trehalase could enhance the efficacy of trehalose, a trehalase knockout mouse was generated. Control mice and trehalase knockout mice were then administered trehalose IP at 1 g/kg. Of 12 chimeric founders, a trehalose tolerance test was performed on n=3 non-targeted controls and n=5 chimeric mice. […] The serum concentration of trehalose at 30 minutes post-administration was measured.

ApoE deficient mice = experiment: Atherosclerotic lesion size in ApoE deficient mice fed a Western diet; type: in vivo; details: trehalose oral and IP, 2 months post-treatment, relative to vehicle
Protocol: ApoE deficient mice were fed a Western diet with and without treatment with trehalose. Trehalose was administered oral and IP. At 2 months post-treatment the presence of atherosclerosis was evaluated.

[6] = oral; cited from earlier work

OC[C@H]1O[C@H](O[C@H]2O[C@H](CO)[C@@H](O)[C@H](O)[C@H]2O)[C@H](O)[C@@H](O)[C@@H]1O [trehalose]
safety and toxicity [1]: found to be safe
insulin resistance (insulin tolerance test) (Mice fed a Western diet [2]): less insulin resistance was observed
oral amount that may cause diarrhea and bloating [3]: 40-50 gram per day
oral amount that frequently causes diarrhea, bloating and discomfort ([3]; humans): higher than 50 g a day
lean mass (Mice fed a Western diet [4]; FIG. 2B): not lean mass
liver triglycerides (Mice fed a Western diet [4]; FIG. 2D): significant reduction in liver triglycerides
body mass (Mice fed a Western diet [4]; Western diet, oral 2% w/v in water plus 2 g/kg IP 3 times/week, at 13-16 weeks): significantly decreased body mass
fat mass (Mice fed a Western diet [4]; at 16 weeks, relative to saline or sucrose): significant reduction in fat mass
subcutaneous (subQ) fat mass (Mice fed a Western diet [4]; tissue weights, FIG. 2C): reduction of fat mass in the subcutaneous (subQ) fat
tissue mass in the liver (Mice fed a Western diet [4]; tissue weights, FIG. 2C): significant reduction in tissue mass in the liver
serum concentration of trehalose at 30 minutes post-administration [5]: significantly higher serum levels of trehalose
atherosclerotic lesion size (ApoE deficient mice): significantly reduced atherosclerotic lesion size
ingested trehalose absorbed into the blood stream [6]: Less than 0.5%
trehalose not absorbed into the blood stream [6]: Over 99.5%
